Reference: patent US8722849B2, “Polypeptides” (Novo Nordisk A/S, priority 2011, dated 2014)
Converted amounts (≈) assume the structure as drawn. Like-named read-outs stand apart in the source and are kept apart here. Starred links: 1 amine or outer side, 2 acyl side, 3 side chain; linkers in the order of their positions; H or OH if unused. Positions of bridges follow the written chain, without caps; N, C: chain ends. Residues, ends and D or L forms follow the SMILES beside them. Groups on a side chain read outwards from the residue. *: point of attachment. C20 diacid = O=C(O)CCCCCCCCCCCCCCCCCCC(=O)*; γGlu = O=C(O)[C@H](CCC(=O)[*:2])N[*:1]; AEEA = NCCOCCOCC(=O)O

Assay: Assay (IV) determination of solubility
Format: physicochemical
Summary of the method: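 Polypeptide in water (~500 nmol/ml) mixed 1:1 with 100 mM glycylglycine (pH 3.0–5.0) or bistrispropane (pH 6.0–8.0) buffers. Held 18 hours at room temperature, then centrifuged. Polypeptide remaining in solution quantified by HPLC.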

[1] = pH 3, pH 3.0, read-out: Solubility pH 3.0
[2] = pH 4, pH 4.0, 18 hours at room temperature, Table 2, read-out: Solubility pH 4.0
[3] = pH 4, pH 4.0, read-out: Solubility pH 4.0
[4] = pH 5, pH 5.0, read-out: Solubility pH 5.0
[5] = pH 6, pH 6.0, read-out: Solubility pH 6.0
[6] = pH 6.5, pH 6.5, read-out: Solubility pH 6.5
[7] = pH 7, pH 7.0, read-out: Solubility pH 7.0
[8] = pH 7.5, pH 7.5, read-out: Solubility pH 7.5

Compound `CC[C@H](C)[C@H](NC(=O)[C@H](CCCCNC(=O)COCCOCCNC(=O)COCCOCCNC(=O)CC[C@H](NC(=O)CCCCCCCCCCCCCCCCCCC(=O)O)C(=O)O)NC(=O)CNC(=O)[C@H](Cc1ccccc1)NC(=O)[C@H](CC(N)=O)NC(=O)[C@H](CC(N)=O)NC(=O)[C@H](CO)NC(=O)[C@H](CO)NC(=O)[C@H](Cc1c[nH]cn1)NC(=O)[C@H](Cc1c[nH]cn1)NC(=O)[C@H](CC(C)C)NC(=O)[C@H](Cc1ccccc1)NC(=O)[C@H](CCC(=O)O)NC(=O)[C@H](C)NC(=O)[C@H](CC(C)C)NC(=O)[C@H](CCCNC(=N)N)NC(=O)[C@H](CCC(N)=O)NC(=O)[C@@H](NC(=O)[C@H](C)NC(=O)[C@@H]1CSSC[C@H](NC(=O)[C@@H](N)CCCCN)C(=O)N[C@@H](CC(N)=O)C(=O)N[C@@H]([C@@H](C)O)C(=O)N[C@@H](C)C(=O)N[C@@H]([C@@H](C)O)C(=O)N1)[C@@H](C)O)C(=O)N[C@@H](CC(C)C)C(=O)N[C@@H](CO)C(=O)N[C@@H](CO)C(=O)N[C@H](C(=O)N[C@@H](CC(N)=O)C(=O)N[C@H](C(=O)NCC(=O)N[C@@H](CO)C(=O)N[C@@H](Cc1c[nH]cn1)C(=O)N[C@H](C(=O)N[C@@H](Cc1ccc(O)cc1)C(N)=O)[C@@H](C)O)C(C)C)[C@@H](C)O` [Example 142, N-epsilon25-[2-(2-{2-[2-(2-{2-[(S)-4-Carboxy-4-(19-carboxyheptadecanoylamino)butyrylamino]ethoxy}ethoxy)acetylamino]ethoxy}ethoxy)acetyl]-[Glu14,His17,Lys25,Ser28,Ser29,His35]-pramlintide] (H-KCNTATCATQRLAEFLHHSSNNFGK([AEEA-AEEA-γGlu-C20 diacid])ILSSTNVGSHTY-NH2; disulfide 2-7) has a solubility [1] of over 200 µM, a solubility [2] of over 200 µM and a solubility [3] of over 200 µM. It also gave a solubility [4] of 185 µM (≈ 884 µg/mL), a solubility [5] of 118 µM (≈ 564 µg/mL) and a solubility [6] of 1 µM (≈ 4.78 µg/mL). For the same compound, the solubility [7] was 1 µM (≈ 4.78 µg/mL) and the solubility [8] was 1 µM (≈ 4.78 µg/mL).

With `CC[C@H](C)[C@H](NC(=O)[C@@H]1CCCN1C(=O)CNC(=O)[C@H](Cc1ccccc1)NC(=O)[C@H](CC(N)=O)NC(=O)[C@H](CCCCNC(=O)COCCOCCNC(=O)COCCOCCNC(=O)CC[C@H](NC(=O)CCCCCCCCCCCCCCCCCCC(=O)O)C(=O)O)NC(=O)[C@H](CO)NC(=O)[C@H](CO)NC(=O)[C@H](Cc1c[nH]cn1)NC(=O)[C@H](Cc1c[nH]cn1)NC(=O)[C@H](CC(C)C)NC(=O)[C@H](Cc1ccccc1)NC(=O)[C@H](CCC(=O)O)NC(=O)[C@H](C)NC(=O)[C@H](CC(C)C)NC(=O)[C@H](CCCNC(=N)N)NC(=O)[C@H](CCC(N)=O)NC(=O)[C@@H](NC(=O)[C@H](C)NC(=O)[C@@H]1CSSC[C@H](NC(=O)[C@@H](N)CCCCN)C(=O)N[C@@H](CC(N)=O)C(=O)N[C@@H]([C@@H](C)O)C(=O)N[C@@H](C)C(=O)N[C@@H]([C@@H](C)O)C(=O)N1)[C@@H](C)O)C(=O)N[C@@H](CC(C)C)C(=O)N[C@@H](CO)C(=O)N1CCC[C@H]1C(=O)N[C@H](C(=O)N[C@@H](CC(N)=O)C(=O)N[C@H](C(=O)NCC(=O)N[C@@H](CO)C(=O)N[C@@H](Cc1c[nH]cn1)C(=O)N[C@H](C(=O)N[C@@H](Cc1ccc(O)cc1)C(N)=O)[C@@H](C)O)C(C)C)[C@@H](C)O` [Example 144, N-epsilon21-[2-(2-{2-[2-(2-{2-[(S)-4-Carboxy-4-(19-carboxyheptadecanoylamino)butyrylamino]ethoxy}ethoxy)acetylamino]ethoxy}ethoxy)acetyl]-[Glu14,His17,Lys21,Ser28,His35]-pramlintide] (H-KCNTATCATQRLAEFLHHSSK([AEEA-AEEA-γGlu-C20 diacid])NFGPILSPTNVGSHTY-NH2; disulfide 2-7) the solubility [1] was over 200 µM, the solubility [2] was over 200 µM and the solubility [3] was over 200 µM. It also gave a solubility [4] of over 200 µM, a solubility [5] of 47 µM (≈ 224 µg/mL) and a solubility [6] of 2 µM (≈ 9.55 µg/mL). It also gave a solubility [7] of 1 µM (≈ 4.77 µg/mL) and a solubility [8] of 1 µM (≈ 4.77 µg/mL).

Work on `CC[C@H](C)[C@H](NC(=O)[C@@H]1CCCN1C(=O)CNC(=O)[C@H](Cc1ccccc1)NC(=O)[C@H](CC(N)=O)NC(=O)[C@H](CCCCNC(=O)COCCOCCNC(=O)COCCOCCNC(=O)CC[C@H](NC(=O)CCCCCCCCCCCCCCCCCCC(=O)O)C(=O)O)NC(=O)[C@H](CO)NC(=O)[C@H](CO)NC(=O)[C@H](Cc1c[nH]cn1)NC(=O)[C@@H](NC(=O)[C@H](CC(C)C)NC(=O)[C@H](Cc1ccccc1)NC(=O)[C@H](CCC(=O)O)NC(=O)[C@H](C)NC(=O)[C@H](CC(C)C)NC(=O)[C@H](CCCNC(=N)N)NC(=O)[C@H](CCC(N)=O)NC(=O)[C@@H](NC(=O)[C@H](C)NC(=O)[C@@H]1CSSC[C@H](NC(=O)[C@@H](N)CCCCN)C(=O)N[C@@H](CC(N)=O)C(=O)N[C@@H]([C@@H](C)O)C(=O)N[C@@H](C)C(=O)N[C@@H]([C@@H](C)O)C(=O)N1)[C@@H](C)O)C(C)C)C(=O)N[C@@H](CC(C)C)C(=O)N[C@@H](CO)C(=O)N[C@@H](CCCNC(=N)N)C(=O)N[C@H](C(=O)N[C@@H](CC(N)=O)C(=O)N[C@H](C(=O)NCC(=O)N[C@@H](CO)C(=O)N[C@@H](Cc1c[nH]cn1)C(=O)N[C@H](C(=O)N[C@@H](Cc1ccc(O)cc1)C(N)=O)[C@@H](C)O)C(C)C)[C@@H](C)O` [Example 147, N-epsilon21-[2-(2-{2-[2-(2-{2-[(S)-4-Carboxy-4-(19-carboxyheptadecanoylamino)butyrylamino]ethoxy}ethoxy)acetylamino]ethoxy}ethoxy)acetyl]-[Glu14,Lys21,Ser28,Arg29,His35]-pramlintide] (H-KCNTATCATQRLAEFLVHSSK([AEEA-AEEA-γGlu-C20 diacid])NFGPILSRTNVGSHTY-NH2; disulfide 2-7) yielded a solubility [1] of over 200 µM, a solubility [2] of over 200 µM and a solubility [3] of over 200 µM. The solubility [4] was over 200 µM, the solubility [5] was 1 µM (≈ 4.79 µg/mL) and the solubility [6] was 1 µM (≈ 4.79 µg/mL). It also gave a solubility [7] of 1 µM (≈ 4.79 µg/mL) and a solubility [8] of 1 µM (≈ 4.79 µg/mL).

`CC[C@H](C)[C@H](NC(=O)[C@@H]1CCCN1C(=O)CNC(=O)[C@H](Cc1ccccc1)NC(=O)[C@H](CC(N)=O)NC(=O)[C@H](CCCCNC(=O)COCCOCCNC(=O)COCCOCCNC(=O)CC[C@H](NC(=O)CCCCCCCCCCCCCCCCCCC(=O)O)C(=O)O)NC(=O)[C@H](CO)NC(=O)[C@H](CO)NC(=O)[C@H](Cc1c[nH]cn1)NC(=O)[C@H](Cc1c[nH]cn1)NC(=O)[C@H](CC(C)C)NC(=O)[C@H](Cc1ccccc1)NC(=O)[C@H](CCC(=O)O)NC(=O)[C@H](C)NC(=O)[C@H](CC(C)C)NC(=O)[C@H](CCCNC(=N)N)NC(=O)[C@H](CCC(N)=O)NC(=O)[C@@H](NC(=O)[C@H](C)NC(=O)[C@@H]1CSSC[C@H](NC(=O)[C@@H](N)CCCCN)C(=O)N[C@@H](CC(N)=O)C(=O)N[C@@H]([C@@H](C)O)C(=O)N[C@@H](C)C(=O)N[C@@H]([C@@H](C)O)C(=O)N1)[C@@H](C)O)C(=O)N[C@@H](CC(C)C)C(=O)N[C@@H](CO)C(=O)N[C@@H](CO)C(=O)N[C@H](C(=O)N[C@@H](CC(N)=O)C(=O)N[C@H](C(=O)NCC(=O)N[C@@H](CO)C(=O)N[C@@H](Cc1c[nH]cn1)C(=O)N[C@H](C(=O)N[C@@H](Cc1ccc(O)cc1)C(N)=O)[C@@H](C)O)C(C)C)[C@@H](C)O` [Example 148, N-epsilon21-[2-(2-{2-[2-(2-{2-[(S)-4-Carboxy-4-(19-carboxyheptadecanoylamino)butyrylamino]ethoxy}ethoxy)acetylamino]ethoxy}ethoxy)acetyl]-[Glu14,His17,Lys21,Ser28,Ser29,His35]-pramlintide] (H-KCNTATCATQRLAEFLHHSSK([AEEA-AEEA-γGlu-C20 diacid])NFGPILSSTNVGSHTY-NH2; disulfide 2-7) gave a solubility [1] of over 200 µM, a solubility [2] of over 200 µM and a solubility [3] of over 200 µM. It also gave a solubility [4] of over 200 µM, a solubility [5] of 51 µM (≈ 243 µg/mL) and a solubility [6] of 19 µM (≈ 90.5 µg/mL). For the same compound, the solubility [7] was 1 µM (≈ 4.76 µg/mL) and the solubility [8] was 1 µM (≈ 4.76 µg/mL).
